Results reported in patent US12054447B2, “PCNA inhibitors” (City of Hope, priority 2015, dated 2024).

These compounds were tested on MOLT-4 (assay: NCI-60 panel test). Conditions: Homo sapiens; MOLT-4, NCI-60 5-dose study.
Format: cell-based
Experimental: (§1) FIG. 7. NCI-60 panel test. The effect of AOH1160 on growth of the NCI-60 panel, which consists of 60 cancer cell lines representing 9 major cancer types, was tested in a 5-dose study. Shown are the Log IC50 values determined for each cell line. […] This study was performed by the National Institute of Cancer.
(§2) As observed in FIG. 7, the effect of AOH1160 on growth of the NCI-60 panel, which consists of 60 cancer cell lines representing 9 major cancer types, was tested in a 5-dose study. Shown are the Log IC50 values determined for each cell line.
O=C(CNC(=O)c1cccc2ccccc12)Nc1ccccc1Oc1ccccc1 [AOH1160] gave a GI50 of 347 nM.

The compounds below were run on SF-268 (assay: NCI-60 panel test). Conditions: Homo sapiens.
Format: cell-based
Experimental: as §1, §2
O=C(CNC(=O)c1cccc2ccccc12)Nc1ccccc1Oc1ccccc1 [AOH1160] gave a GI50 of 437 nM.

What follows are compounds tested on NCI/ADR-RES (assay: NCI-60 panel test). Conditions: Homo sapiens, NCI-60 5-dose study.
Format: cell-based
Experimental: as §1, §2
O=C(CNC(=O)c1cccc2ccccc12)Nc1ccccc1Oc1ccccc1 [AOH1160] showed a GI50 of 240 nM.

The compounds below were run on HCT-116 (assay: NCI-60 panel test). Conditions: Homo sapiens; HCT-116, NCI-60 5-dose study.
Format: cell-based
Experimental: as §1, §2
Work on O=C(CNC(=O)c1cccc2ccccc12)Nc1ccccc1Oc1ccccc1 [AOH1160] yielded a GI50 of 324 nM.

What follows are compounds tested on OVCAR-5 (assay: NCI-60 panel test). Conditions: Homo sapiens; OVCAR-5, NCI-60 5-dose study.
Format: cell-based
Experimental: as §1, §2
Work on O=C(CNC(=O)c1cccc2ccccc12)Nc1ccccc1Oc1ccccc1 [AOH1160] yielded a GI50 of 525 nM.

Each compound was assayed on CCRF-CEM (assay: NCI-60 panel test). Conditions: Homo sapiens, NCI-60 5-dose study.
Format: cell-based
Experimental: as §1, §2
In the case of O=C(CNC(=O)c1cccc2ccccc12)Nc1ccccc1Oc1ccccc1 [AOH1160], the GI50 is reported as 347 nM.

These compounds were tested on SN12C (assay: NCI-60 panel test). Conditions: Homo sapiens, NCI-60 5-dose study.
Format: cell-based
Experimental: as §1, §2
For O=C(CNC(=O)c1cccc2ccccc12)Nc1ccccc1Oc1ccccc1 [AOH1160], the GI50 was 589 nM.

Each compound was assayed on NCI-H522 (assay: NCI-60 panel test). Conditions: Homo sapiens; NCI-H522, NCI-60 5-dose study.
Format: cell-based
Experimental: as §1, §2
With O=C(CNC(=O)c1cccc2ccccc12)Nc1ccccc1Oc1ccccc1 [AOH1160] the GI50 was 151 nM.

The compounds below were run on M14 (assay: NCI-60 panel test). Conditions: Homo sapiens; M14, NCI-60 5-dose study.
Format: cell-based
Experimental: as §1, §2
O=C(CNC(=O)c1cccc2ccccc12)Nc1ccccc1Oc1ccccc1 [AOH1160] was tested, and the GI50 was 275 nM.

Each compound was assayed on IGROV1 (assay: NCI-60 panel test). Conditions: Homo sapiens, IGROV-1; IGROV1, NCI-60 5-dose study.
Format: cell-based
Experimental: as §1, §2
With O=C(CNC(=O)c1cccc2ccccc12)Nc1ccccc1Oc1ccccc1 [AOH1160] the GI50 was 912 nM.

Each compound was assayed on MALME-3M (assay: NCI-60 panel test). Conditions: Homo sapiens, NCI-60 5-dose study.
Format: cell-based
Experimental: as §1, §2
For O=C(CNC(=O)c1cccc2ccccc12)Nc1ccccc1Oc1ccccc1 [AOH1160], the GI50 was 10000 nM.

The compounds below were run on LOX IMVI (assay: NCI-60 panel test). Conditions: Homo sapiens, NCI-60 5-dose study.
Format: cell-based
Experimental: as §1, §2
O=C(CNC(=O)c1cccc2ccccc12)Nc1ccccc1Oc1ccccc1 [AOH1160] gave a GI50 of 309 nM.

These compounds were tested on MDA-MB-468 (assay: NCI-60 panel test). Conditions: Homo sapiens; MDA-MB-468, NCI-60 5-dose study.
Format: cell-based
Experimental: as §1, §2
O=C(CNC(=O)c1cccc2ccccc12)Nc1ccccc1Oc1ccccc1 [AOH1160] was tested, and the GI50 was 324 nM.

What follows are compounds tested on HOP-92 (assay: NCI-60 panel test). Conditions: Homo sapiens; HOP-92, NCI-60 5-dose study.
Format: cell-based
Experimental: as §1, §2
With O=C(CNC(=O)c1cccc2ccccc12)Nc1ccccc1Oc1ccccc1 [AOH1160] the GI50 was 2240 nM.

These compounds were tested on NCI-H226 (assay: NCI-60 panel test). Conditions: Homo sapiens; NCI-H226, NCI-60 5-dose study.
Format: cell-based
Experimental: as §1, §2
O=C(CNC(=O)c1cccc2ccccc12)Nc1ccccc1Oc1ccccc1 [AOH1160] showed a GI50 of 2190 nM.

The compounds below were run on HCC-2998 (assay: NCI-60 panel test). Conditions: Homo sapiens; HCC-2998, NCI-60 5-dose study.
Format: cell-based
Experimental: as §1, §2
O=C(CNC(=O)c1cccc2ccccc12)Nc1ccccc1Oc1ccccc1 [AOH1160] showed a GI50 of 708 nM.

The compounds below were run on KM12 (assay: NCI-60 panel test). Conditions: Homo sapiens; KM12, NCI-60 5-dose study.
Format: cell-based
Experimental: as §1, §2
Compound O=C(CNC(=O)c1cccc2ccccc12)Nc1ccccc1Oc1ccccc1 [AOH1160] has a GI50 of 288 nM.

What follows are compounds tested on SK-MEL-28 (assay: NCI-60 panel test). Conditions: Homo sapiens; SK-MEL-28, NCI-60 5-dose study.
Format: cell-based
Experimental: as §1, §2
Work on O=C(CNC(=O)c1cccc2ccccc12)Nc1ccccc1Oc1ccccc1 [AOH1160] yielded a GI50 of 813 nM.

These compounds were tested on SK-OV-3 (assay: NCI-60 panel test). Conditions: Homo sapiens; SK-OV-3, NCI-60 5-dose study.
Format: cell-based
Experimental: as §1, §2
O=C(CNC(=O)c1cccc2ccccc12)Nc1ccccc1Oc1ccccc1 [AOH1160] gave a GI50 of 398 nM.

What follows are compounds tested on MDA-MB-435 (assay: NCI-60 panel test). Conditions: Homo sapiens; MDA-MB-435, NCI-60 5-dose study.
Format: cell-based
Experimental: as §1, §2
Work on O=C(CNC(=O)c1cccc2ccccc12)Nc1ccccc1Oc1ccccc1 [AOH1160] yielded a GI50 of 42.7 nM.

Each compound was assayed on COLO 205 (assay: NCI-60 panel test). Conditions: Homo sapiens.
Format: cell-based
Experimental: as §1, §2
With O=C(CNC(=O)c1cccc2ccccc12)Nc1ccccc1Oc1ccccc1 [AOH1160] the GI50 was 309 nM.

What follows are compounds tested on RXF 393 (assay: NCI-60 panel test). Conditions: Homo sapiens; RXF 393, NCI-60 5-dose study.
Format: cell-based
Experimental: as §1, §2
O=C(CNC(=O)c1cccc2ccccc12)Nc1ccccc1Oc1ccccc1 [AOH1160] showed a GI50 of 186 nM.

These compounds were tested on PC-3 (assay: NCI-60 panel test). Conditions: Homo sapiens; PC-3, NCI-60 5-dose study.
Format: cell-based
Experimental: as §1, §2
Work on O=C(CNC(=O)c1cccc2ccccc12)Nc1ccccc1Oc1ccccc1 [AOH1160] yielded a GI50 of 302 nM.

These compounds were tested on 786-0 (assay: NCI-60 panel test). Conditions: Homo sapiens; 786-0, NCI-60 5-dose study.
Format: cell-based
Experimental: as §1, §2
O=C(CNC(=O)c1cccc2ccccc12)Nc1ccccc1Oc1ccccc1 [AOH1160] gave a GI50 of 447 nM.

What follows are compounds tested on SK-MEL-2 (assay: NCI-60 panel test). Conditions: Homo sapiens; SK-MEL-2, NCI-60 5-dose study.
Format: cell-based
Experimental: as §1, §2
Work on O=C(CNC(=O)c1cccc2ccccc12)Nc1ccccc1Oc1ccccc1 [AOH1160] yielded a GI50 of 269 nM.

These compounds were tested on BT-549 (assay: NCI-60 panel test). Conditions: Homo sapiens; BT-549, NCI-60 5-dose study.
Format: cell-based
Experimental: as §1, §2
With O=C(CNC(=O)c1cccc2ccccc12)Nc1ccccc1Oc1ccccc1 [AOH1160] the GI50 was 407 nM.

The compounds below were run on HCT-15 (assay: NCI-60 panel test). Conditions: Homo sapiens; HCT-15, NCI-60 5-dose study.
Format: cell-based
Experimental: as §1, §2
With O=C(CNC(=O)c1cccc2ccccc12)Nc1ccccc1Oc1ccccc1 [AOH1160] the GI50 was 245 nM.

These compounds were tested on NCI-H322M (assay: NCI-60 panel test). Conditions: Homo sapiens, NCI-60 5-dose study.
Format: cell-based
Experimental: as §1, §2
Work on O=C(CNC(=O)c1cccc2ccccc12)Nc1ccccc1Oc1ccccc1 [AOH1160] yielded a GI50 of 631 nM.

Each compound was assayed on SNB-19 (assay: NCI-60 panel test). Conditions: Homo sapiens; SNB-19, NCI-60 5-dose study.
Format: cell-based
Experimental: as §1, §2
With O=C(CNC(=O)c1cccc2ccccc12)Nc1ccccc1Oc1ccccc1 [AOH1160] the GI50 was 457 nM.

What follows are compounds tested on SNB-75 (assay: NCI-60 panel test). Conditions: Homo sapiens; SNB-75, NCI-60 5-dose study.
Format: cell-based
Experimental: as §1, §2
With O=C(CNC(=O)c1cccc2ccccc12)Nc1ccccc1Oc1ccccc1 [AOH1160] the GI50 was 229 nM.

These compounds were tested on SW-620 (assay: NCI-60 panel test). Conditions: Homo sapiens; SW-620, NCI-60 5-dose study.
Format: cell-based
Experimental: as §1, §2
In the case of O=C(CNC(=O)c1cccc2ccccc12)Nc1ccccc1Oc1ccccc1 [AOH1160], the GI50 is reported as 282 nM.

The compounds below were run on OVCAR-8 (assay: NCI-60 panel test). Conditions: Homo sapiens; OVCAR-8, NCI-60 5-dose study.
Format: cell-based
Experimental: as §1, §2
O=C(CNC(=O)c1cccc2ccccc12)Nc1ccccc1Oc1ccccc1 [AOH1160] showed a GI50 of 316 nM.

These compounds were tested on HOP-62 (assay: NCI-60 panel test). Conditions: Homo sapiens; HOP-62, NCI-60 5-dose study.
Format: cell-based
Experimental: as §1, §2
With O=C(CNC(=O)c1cccc2ccccc12)Nc1ccccc1Oc1ccccc1 [AOH1160] the GI50 was 355 nM.

What follows are compounds tested on NCI-H23 (assay: NCI-60 panel test). Conditions: Homo sapiens; NCI-H23, NCI-60 5-dose study.
Format: cell-based
Experimental: as §1, §2
For O=C(CNC(=O)c1cccc2ccccc12)Nc1ccccc1Oc1ccccc1 [AOH1160], the GI50 was 661 nM.

What follows are compounds tested on A498 (assay: NCI-60 panel test). Conditions: Homo sapiens; A498, NCI-60 5-dose study.
Format: cell-based
Experimental: as §1, §2
O=C(CNC(=O)c1cccc2ccccc12)Nc1ccccc1Oc1ccccc1 [AOH1160] showed a GI50 of 257 nM.

The compounds below were run on U251 (assay: NCI-60 panel test). Conditions: Homo sapiens, U-251; U251, NCI-60 5-dose study.
Format: cell-based
Experimental: as §1, §2
Work on O=C(CNC(=O)c1cccc2ccccc12)Nc1ccccc1Oc1ccccc1 [AOH1160] yielded a GI50 of 331 nM.

These compounds were tested on MCF7 (assay: NCI-60 panel test). Conditions: Homo sapiens; MCF7, NCI-60 5-dose study.
Format: cell-based
Experimental: as §1, §2
O=C(CNC(=O)c1cccc2ccccc12)Nc1ccccc1Oc1ccccc1 [AOH1160] gave a GI50 of 309 nM.

The compounds below were run on K-562 (assay: NCI-60 panel test). Conditions: Homo sapiens, K562; K-562, NCI-60 5-dose study.
Format: cell-based
Experimental: as §1, §2
In the case of O=C(CNC(=O)c1cccc2ccccc12)Nc1ccccc1Oc1ccccc1 [AOH1160], the GI50 is reported as 70.8 nM.
